Holding throughout (assay): Post-emergence foliage spray, pot culture, fresh weight inhibition (Tables 1-48, 51-98, 101-148; 24 days)
What all share (type): in vivo

One experiment has as its system Acalypha australis. From the text: (§1) Table 1-48, 51-98, 101-148: Echinochloa crusgalli var. zelayensis, Eclipta prostrate, Galium aparine L., Alopecurus aequalis, Alopecurus japonicus, Lindernia procumbens, Veronica persica^1, Malachium aquaticum, Beckmannia syzigachne, Stellaria media were collected in Huai'an of Jiangsu Province; Commelina communis, Sonchus arvensis, Setaria glauca, Chloris virgata, Setaria faberi, Sonchus oleraceus L., Echinochloa oryzoides, Cirsium setosum, Xanthium strumarium were collected in Qiqiha'er of Heilongjiang Province; Sinapis arvensis, Veronica persica^2 were collected in Zhumadian of Henan Province; Ludwigia prostrate, Ammannia arenaria were collected in Zhuji of Zhejiang Province; Amaranthus retrojlexus, Descurainia sophia, Digitaria sanguinalis, Setaria viridis, Conyza Canadensis, Capsella bursa-pastoris, Eleusine indica, Ipomoea purpurea, Abutilon theophrasti, Chenopodium album, Acalypha australis, Solanum nigrum were collected in Qingdao of Shandong Province; Echinochloa caudate were collected in Pingluo of Ningxia Province.
(§2) The above weeds were cultivated by a pot culture method. […] Full and uniform weed seeds were selected, soaked in warm water at 25° C. for 6 hours, and germinated in a 28° C. biochemical incubator (darkness). The weed seeds that had just germinatedwere evenly placed on the surface of the soil and then covered with 0.5-1 cm soil according to the sizes of seeds.
(§3) The culture was carried out in a controllable sunlight greenhouse at 20 to 30° C., in natural light, and relative humidity of 57% to 72%.
(§4) The technical materials were all dissolved in acetone, and diluted with an aqueous solution containing 0.1% emulsifier Tween-80. The dilution is performed as required.
(§5) A ratio of the active ingredient A to the active ingredient B and amounts thereof in each group depends on the characteristics and toxicity of the two agents, as well as the main application purpose of a corresponding formulation. Based on the pre-tests in this study, the dosage of the active ingredient A and B applied alone and in combination were shown in the tables. Water containing the solvent and emulsifier same with the above groups but free of the agents was used as a blank control.
(§6) Table 1-48, 51-98, 101-148, 151-206: […] per treatment, that is, a total of 60 weeds were treated in one treatment.
(§7) Table 1-48, 51-98, 101-148: The agents were used for only once in the experiment. In the stage of weeds with 3˜4 leaves, the weeds were thinned out to maintain 15 weeds per pot and 45 weeds for each treatment, then continued to be cultured to 5˜6 leaves stage of grassy weeds, 6˜7 leaves stage of broadleaf weeds, and treated.
(§8) The well-cultured weeds were evenly placed on a platform with an area of 0.5 m^2, and a solution of agents was sprayed on the stems and leaves thereof by the 3WP-2000-type walking spray tower at a dosage of 450 kg/ha and at a spray pressure of 0.3 MPa. After all the solution was sprayed, the valve was closed. After 30 seconds, the door of the spray tower was opened, and the nutritional bowl was taken out. Then the valve was opened, and the spray tube was cleaned by spraying 50 ml of water.
(§9) A pot-culture method was employed. For the cultivation of weeds, please refer to the Section 1.1), and “Pesticide guidelines for laboratory bioactivity tests—herbicides”. As to a method for applying agents, please refer to the section 2.3.2), that is, a foliage treatment was employed. After the treatment, the weeds were routinely cultured in a greenhouse.
(§10) A method for investigating absolute number was employed, wherein whole seedlings of survival weeds were cut off with a blade along the soil surface, and the fresh weight of the weeds was weighed with an analytical balance. For dead weeds, the fresh weight thereof was zero.
(§11) Table 1-48, 51-98, 101-148, 207-216: The investigation was performed after 24 days of the treatment for only once.

The next experiment concerns Chenopodium album. A digest of the protocol: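 Pot-grown weeds were thinned to 15 per pot (45 per treatment) and sprayed on foliage at the 5–6-leaf stage for grasses or the 6–7-leaf stage for broadleaves. Agents were dissolved in acetone with 0.1% Tween-80 and applied at 450 kg/ha spray volume and 0.3 MPa. Plants were then kept in a greenhouse. Above-ground fresh weight of survivors, with dead plants counted as zero, gave inhibition versus a solvent/emulsifier blank.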

In a further experiment the test system is Alopecurus japonicus.
Description: as §1, §2, §3, §4, §5, §6, §7, §8, §9, §10, §11

The subject of the next experiment is Beckmannia syzigachne.
Description: as §1, §2, §3, §4, §5, §6, §7, §8, §9, §10, §11

Take `N#Cc1cc(Br)c(O)c(Br)c1` [bromoxynil]: the “Control effect (%) of B applied alone in corresponding dose” value (“Control effect (%) of B applied alone” below) was 4.6% in the experiment on Acalypha australis (B 18.75 g a.i./ha); 10.6% with Acalypha australis (B 37.5 g a.i./ha); 58.9% in the experiment on Acalypha australis (B 75 g a.i./ha); 84.0% with Acalypha australis (B 150 g a.i./ha); 3.1% in the experiment on Chenopodium album (bromoxynil 18.75 g a.i./ha); 10.8% with Chenopodium album (bromoxynil 37.5 g a.i./ha). For the same compound, the entries for the “Control effect (%) of B applied alone” value with Chenopodium album (bromoxynil 75 g a.i./ha) and with Chenopodium album (bromoxynil 150 g a.i./ha) were 57.7% and 83.6%, respectively.

Take `CCOc1cc(Oc2ccc(C(F)(F)F)cc2Cl)ccc1[N+](=O)[O-]` [oxyfluorfen]: the “Control effect (%) of B applied alone” value was determined as 4.6% with Acalypha australis (B 7.5 g a.i./ha); 12.4% in the experiment on Acalypha australis (B 15 g a.i./ha); 32.7% in the experiment with Acalypha australis (B 30 g a.i./ha); 68.9% in the experiment with Acalypha australis (B 60 g a.i./ha); 3.6% with Chenopodium album (Table 93, 7.5 g a.i./ha); 11.9% in the experiment on Chenopodium album (Table 93, 15 g a.i./ha). Further, the “Control effect (%) of B applied alone” value in the experiment with Chenopodium album (Table 93, 30 g a.i./ha) came to 30.7%; with Chenopodium album (Table 93, 60 g a.i./ha), 68.1%.

On to `CS(=O)(=O)NC(=O)c1cc(Oc2ccc(C(F)(F)F)cc2Cl)ccc1[N+](=O)[O-]` [fomesafen], for which the “Control effect (%) of B applied alone” value in the experiment on Acalypha australis (B 22.5 g a.i./ha) worked out at 6.4%; in the experiment with Acalypha australis (B 45 g a.i./ha) it was 12.6%; in the experiment on Acalypha australis (B 90 g a.i./ha), 46.9%; in the experiment on Acalypha australis (B 180 g a.i./ha) it was 82.4%; in the experiment on Chenopodium album (Table 91, 22.5 g a.i./ha), 2.7%; in the experiment with Chenopodium album (Table 91, 45 g a.i./ha) it was 18.6%. In addition, the “Control effect (%) of B applied alone” value in the experiment on Chenopodium album (Table 91, 90 g a.i./ha) worked out at 45.4%; in the experiment with Chenopodium album (Table 91, 180 g a.i./ha), 81.9%.

As for `CCOC(=O)C(C)OC(=O)c1cc(Oc2ccc(C(F)(F)F)cc2Cl)ccc1[N+](=O)[O-]` (centres unmarked) [lactofen], the “Control effect (%) of B applied alone” value is given as 2.7% in the experiment with Acalypha australis (B 7.5 g a.i./ha); 13.5% with Acalypha australis (B 15 g a.i./ha); 41.4% in the experiment with Acalypha australis (B 30 g a.i./ha); 66.4% with Acalypha australis (B 60 g a.i./ha); 3.3% with Chenopodium album (Table 94, 7.5 g a.i./ha); 10.4% in the experiment on Chenopodium album (Table 94, 15 g a.i./ha). Besides, the “Control effect (%) of B applied alone” value in the experiment on Chenopodium album (Table 94, 30 g a.i./ha) came to 39.7%; with Chenopodium album (Table 94, 60 g a.i./ha), 65.4%.

`O=C(O)COC(=O)c1cc(Oc2ccc(C(F)(F)F)cc2Cl)ccc1[N+](=O)[O-]` [fluoroglycofen]: the “Control effect (%) of B applied alone” value in the experiment with Acalypha australis (B 0.9375 g a.i./ha) stood at 4.0%; in the experiment with Acalypha australis (B 1.875 g a.i./ha) it was 15.7%; in the experiment with Acalypha australis (B 3.75 g a.i./ha), 41.6%; with Acalypha australis (B 7.5 g a.i./ha), 71.4%; in the experiment with Chenopodium album (Table 92, 0.9375 g a.i./ha), 2.3%; with Chenopodium album (Table 92, 1.875 g a.i./ha), 12.8%. Also, the “Control effect (%) of B applied alone” value in the experiment with Chenopodium album (Table 92, 3.75 g a.i./ha) was determined as 40.0%; with Chenopodium album (Table 92, 7.5 g a.i./ha), 70.6%.

On to `CCc1cc(C)cc(CC)c1-c1c(OC(=O)C(C)(C)C)n2n(c1=O)CCOCC2` [pinoxaden], for which the “Control effect (%) of B applied alone” value in the experiment on Alopecurus japonicus (pinoxaden 3.75 g a.i./ha) stood at 2.5%; in the experiment on Alopecurus japonicus (pinoxaden 7.5 g a.i./ha), 12.1%; in the experiment with Alopecurus japonicus (pinoxaden 15 g a.i./ha) it was 41.7%; in the experiment on Alopecurus japonicus (pinoxaden 30 g a.i./ha) it was 71.8%; in the experiment with Beckmannia syzigachne (B 3.75 g a.i./ha), 7.9%; in the experiment with Beckmannia syzigachne (B 7.5 g a.i./ha), 18.0%. For the same compound, the “Control effect (%) of B applied alone” value in the experiment on Beckmannia syzigachne (B 15 g a.i./ha) worked out at 43.5%; in the experiment with Beckmannia syzigachne (B 30 g a.i./ha) it was 72.6%.

For `Cn1[nH]c(C2CC2)c(C(=O)c2ccc(C(F)(F)F)c(N3CCCCC3=O)c2Cl)c1=O` [cypyrafluone], the “Control effect (%) of B applied alone” value is 4.0% in the experiment with Alopecurus japonicus (cypyrafluone 18.75 g a.i./ha); 24.9% in the experiment with Alopecurus japonicus (cypyrafluone 37.5 g a.i./ha); 54.8% with Alopecurus japonicus (cypyrafluone 75 g a.i./ha); 81.3% with Alopecurus japonicus (cypyrafluone 150 g a.i./ha); 9.0% with Beckmannia syzigachne (B 18.75 g a.i./ha); 14.2% in the experiment with Beckmannia syzigachne (B 37.5 g a.i./ha). In addition, the “Control effect (%) of B applied alone” value in the experiment on Beckmannia syzigachne (B 75 g a.i./ha) was determined as 56.3%; with Beckmannia syzigachne (B 150 g a.i./ha) it was 81.8%.

In the case of `Cc1ccc(NC(=O)N(C)C)cc1Cl` [chlorotoluron], the “Control effect (%) of B applied alone” value in the experiment on Alopecurus japonicus (chlorotoluron 75 g a.i./ha) is on record as 2.9%; in the experiment on Alopecurus japonicus (chlorotoluron 150 g a.i./ha), 13.1%; in the experiment with Alopecurus japonicus (chlorotoluron 300 g a.i./ha) it was 39.8%; in the experiment on Alopecurus japonicus (chlorotoluron 600 g a.i./ha) it was 71.9%; in the experiment with Beckmannia syzigachne (B 75 g a.i./ha), 5.5%; in the experiment with Beckmannia syzigachne (B 150 g a.i./ha) it was 16.8%. The results for the “Control effect (%) of B applied alone” value in the experiment on Beckmannia syzigachne (B 300 g a.i./ha) and with Beckmannia syzigachne (B 600 g a.i./ha) were 41.1% and 72.1%, respectively.

`C#CCOC(=O)[C@@H](C)Oc1ccc(Oc2ncc(Cl)cc2F)cc1` [clodinafop-propargyl]: the “Control effect (%) of B applied alone” value turned out to be 3.0% in the experiment on Alopecurus japonicus (clodinafop-propargyl 3.75 g a.i./ha); 10.6% in the experiment with Alopecurus japonicus (clodinafop-propargyl 7.5 g a.i./ha); 57.8% in the experiment with Alopecurus japonicus (clodinafop-propargyl 15 g a.i./ha); 79.9% with Alopecurus japonicus (clodinafop-propargyl 30 g a.i./ha); 10.3% in the experiment on Beckmannia syzigachne (B 3.75 g a.i./ha); 20.1% with Beckmannia syzigachne (B 7.5 g a.i./ha). In addition, the entries for the “Control effect (%) of B applied alone” value in the experiment with Beckmannia syzigachne (B 15 g a.i./ha) and in the experiment on Beckmannia syzigachne (B 30 g a.i./ha) were 59.6% and 81.2%, respectively.

For the compound `CC(C)c1ccc(NC(=O)N(C)C)cc1` [isoproturon], the “Control effect (%) of B applied alone” value in the experiment with Alopecurus japonicus (isoproturon 75 g a.i./ha) worked out at 2.5%; with Alopecurus japonicus (isoproturon 150 g a.i./ha), 11.4%; in the experiment with Alopecurus japonicus (isoproturon 300 g a.i./ha), 56.5%; in the experiment on Alopecurus japonicus (isoproturon 600 g a.i./ha), 75.9%; in the experiment with Beckmannia syzigachne (B 75 g a.i./ha) it was 7.0%; in the experiment with Beckmannia syzigachne (B 150 g a.i./ha), 15.9%. The “Control effect (%) of B applied alone” value in the experiment with Beckmannia syzigachne (B 300 g a.i./ha) came to 57.6%; in the experiment on Beckmannia syzigachne (B 600 g a.i./ha) it was 76.6%.

The record behind these values is patent US20220264878A1, “HERBICIDAL COMPOSITION CONTAINING R-TYPE PYRIDYLOXY CARBOXYLIC ACID DERIVATIVE AND USE THEREOF” (Qingdao Kingagroot Chemical Compound Co., Ltd., priority 2019, published 2022).
